Results as given in patent US20130071892A1, “PROCESS FOR PRODUCTION OF POLYHYDROXYALKANOIC ACID USING GENETICALLY MODIFIED MICROORGANISM HAVING ENOYL-CoA HYDRATASE GENE INTRODUCED THEREIN” (TOKYO INSTITUTE OF TECHNOLOGY, priority 2010, published 2013).

What was measured:
[1] = target: C. necator R form-specific enoyl-CoA hydratase PhaJ2 (phaJ2 gene, H16_B0397, SEQ ID NO: 3), wild type, recombinant N-terminal His tag (Cupriavidus necator, UniProt Q0K478); experiment: enoyl-CoA hydratase activity, absorbance decrease at 263 nm, Lineweaver-Burk analysis; assay type: biochemical, Cupriavidus necator H16; conditions: 100 mM Tris-HCl buffer (pH 7.8)
Excerpt: (§1) By homology search with a known R form-specific enoyl CoA hydratase, phaJ1 (SEQ ID NO: 2), phaJ2 (SEQ ID NO: 3), and phaJ3 were identified as a presumptive R form-specific enoyl CoA hydratase gene. Then, using the genomic DNA of C. necator as the template, phaJ1 was amplified by a PCR method with the oligonucleotides of the following sequence 19 and sequence 20 as the primers. Similarly, phaJ2 was amplified by a PCR method with the oligonucleotides of sequence 21 and sequence 22 as the primers. Furthermore, phaJ3 was amplified by a PCR method with the oligonucleotides of sequence 23 and sequence 24 as the primers. Using the KOD Plus (manufactured by TOYOBO) for PCR, a cycle comprising 20 seconds at 98° C., 15 seconds at 61° C. and 2 minutes at 68° C. was repeated for 30 cycles.
(§2) Each fragment of phaJ1, phaJ2 and phaJ3 that were amplified and cleaved with NdeI and XhoI in Example 16 was inserted into an expression plasmid pCOLDII (manufactured by Takara-Bio) cleaved with each of NdeI and XhoI. The plasmids obtained were designated as pCOLD-J1, pCOLD-J2 and pCOLD-J3. These expression plasmids have been constructed so as to produce recombinant protein in which a tag sequence (hereinafter referred to as His tag) comprising 6 histidine residues has been added to the amino terminal end. Using pCOLD-J1, pCOLD-J2 and pCOLD-J3, E. coli strain BL21 (DE3) (manufactured by Novagen) was transformed. Each transformant obtained was cultured in 100 mL of LB medium with 100 mg ampicillin at 37° C. for 4 hours, to which isopropyl-thiogalacto-pyranoside (IPTG) was added at a final concentration of 0.5 mM to induce expression, and further culcuted at 15° C. for 24 hours. The cells collected by centrifugation were resuspended in 20 mM sodium phosphate buffer (pH 7.4) containing 30 mM imidazole and 500 mM NaCl, sonic-disrupted and centrifuged to obtain soluble protein fractions.
(§3) This soluble protein fraction was filtered with a filter having a pore size of 0.22 μm. Then, this was subjected to the HisTrap FF crude column (1 ml) (manufactured by GE Healthcare) equalized in advance with 20 mM sodium phosphate buffer (pH 7.4) containing 30 mM imidazole and 500 mM NaCl so as to allow the His tag-carrying protein to be adsorbed. Subsequently, by linearly increasing the imidazole concentration from 30 mM to 500 mM, the adsorbed protein was eluted and recovered to prepare purified enzyme.
(§4) Proteins expressed from the three genes, phaJ1, phaJ2 and phaJ3, derived from C. necator are hereinafter referred to as PhaJ1, PhaJ2 and PhaJ3, respectively. For each of purified recombinant protein products produced in E. coli, the activity of enoyl-CoA hydratase when crotonyl-CoA (4 carbons), 2-hexenoyl-CoA (6 carbons) or 2-octenoyl-CoA (8 carbons) was used as the substrate was determined according to the method described in Non-patent document 4. Thus, the purified enzyme was added to 100 mM Tris-HCl buffer (pH 7.8) containing the substrate (a total volume of 400 μl), and reduction in absorbance at 263 nm was measured with a spectrophotometer. At this time, the measured values obtained by varying the substrate concentration were analyzed by the Lineweaver-Burk plot to calculate the Michaelis constant Km, and the maximum velocity Vmax.

[2] = target: T1, C. necator R form-specific enoyl-CoA hydratase PhaJ1 (phaJ1 gene, H16_A1070, SEQ ID NO: 2), wild type, recombinant N-terminal His tag (Cupriavidus necator, UniProt Q0KCR0); experiment: as above; assay type: biochemical, Cupriavidus necator H16; conditions: 100 mM Tris-HCl buffer (pH 7.8)
T1 sequence (Q0KCR0 1-158): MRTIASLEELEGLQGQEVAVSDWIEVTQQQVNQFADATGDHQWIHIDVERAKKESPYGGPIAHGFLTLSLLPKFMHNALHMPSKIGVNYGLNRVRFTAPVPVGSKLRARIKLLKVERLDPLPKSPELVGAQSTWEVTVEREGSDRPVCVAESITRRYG
Excerpt: as §1, §2, §3, §4

[3] = test system: C. necator R form-specific enoyl-CoA hydratase PhaJ3 (phaJ3 gene), wild type, recombinant N-terminal His tag; experiment: as above; assay type: biochemical, Cupriavidus necator H16; conditions: 100 mM Tris-HCl buffer (pH 7.8); for Km: read-out: Michaelis constant Km
Excerpt: as §1, §2, §3, §4

[4] = substrate: C/C=C/C(=O)SCCNC(=O)CCNC(=O)[C@H](O)C(C)(C)COP(=O)(O)OP(=O)(O)OC[C@H]1O[C@@H](n2cnc3c(N)ncnc32)[C@H](O)[C@@H]1OP(=O)(O)O; experiment: as above; assay type: biochemical, Cupriavidus necator H16
Excerpt: as §1, §2, §3, §4

[5] = substrate: CCCCC/C=C/C(=O)SCCNC(=O)CCNC(=O)[C@H](O)C(C)(C)COP(=O)(O)OP(=O)(O)OC[C@H]1O[C@@H](n2cnc3c(N)ncnc32)[C@H](O)[C@@H]1OP(=O)(O)O; experiment: as above; assay type: biochemical, Cupriavidus necator H16
Excerpt: as §1, §2, §3, §4

[6] = substrate: CCC/C=C/C(=O)SCCNC(=O)CCNC(=O)[C@H](O)C(C)(C)COP(=O)(O)OP(=O)(O)OC[C@H]1O[C@@H](n2cnc3c(N)ncnc32)[C@H](O)[C@@H]1OP(=O)(O)O; experiment: as above; assay type: biochemical, Cupriavidus necator H16
Excerpt: as §1, §2, §3, §4

[7] = stereoselectivity of the hydration reaction, coupled with PHA granule-mediated polymerization and DTNB; assay type: biochemical; conditions: for absorbance at 412 nm: 0.2 mM crotonyl-CoA, 1 mM DTNB, 5 μl PHA granule fraction, 100 mM Tris-HCl pH 7.8, FIG. 4; for stereoselectivity of the hydration reaction: concluded from the CoA-SH release with PHA granule fraction and DTNB
Excerpt: FIG. 4 The result of investigating the stereoselectivity of PhaJ1, PhaJ2 and PhaJ3 by the conjugation of the enoyl-CoA hydratase-mediated hydration reaction and the PHA granules-mediated polymerization reaction. (A) PhaJ1, (B) PhaJ2, and (C) PhaJ3; dark square: purified enzyme added, open triangle: no purified enzyme added.
In the above measurement of enoyl-CoA hydratase activity, no findings can be obtained on stereoselectivity at the addition of water to the double bond. Thus, the stereoselectivity of the hydration reaction by PhaJ1, PhaJ2 and PhaJ3 was investigated as follows. From the cells of C. necator that accumulated PHA, a water-insoluble PHA granule fraction can be prepared, but PHA synthetic synthase is bound to the surface of the PHA granules. This PHA synthase specifically polymerizes (R)-3-hydroxyacyl-CoA and releases CoA-SH. Thus, when both of the PHA granule fraction and 5,5′-dithiobis(2-nitrobenzoic acid) (DTNB) are present in the reaction solution for determining enoyl-CoA hydratase activity, COA-SH released together with the polymerization by PHA synthase reacts with DTNB to produce a yellow dye having a specific absorption at 412 nm, if the specificity of enoyl-CoA hydratase is (R)-form-specific. Conversely, when enoyl-CoA hydratase is (S)-form-specific, no yellow dye is produced.
Measurement was carried out according to the method described in Non-patent document 4. Thus, the PHA granule fraction was prepared from the cells of the C. necator wild type strain (the H16 strain) cultured for 36 hours in 100 ml of a medium containing fructose as a carbon source in a method described in Example 18. The cells were collected by centrifugation from the culture, and suspended in 3 ml of 50 mM Tris-HCl buffer (pH 7.5) followed by sonic-disruption. The supernatant obtained by low-speed centrifugation of the disruption liquid at 1,500×g, 5 min was further subjected to high-speed centrifugation at 15,000×g, 15 min. And the precipitate fraction was suspended in 3 ml of 50 mM Tris-HCl buffer (pH 7.5) to prepare a PHA granule fraction. Then, the purified enzyme was added to 100 mM Tris-HCl buffer (pH 7.8) containing 0.2 mM crotonyl-CoA, 1 mM DTNB and 5 μl PHA granule fraction (a total volume of 400 μl), and an increase in absorbance at 412 nm was measured.

[8] = other: PhaJ1, 100 mM Tris-HCl buffer (pH 7.8)
[9] = other: PhaJ2, 100 mM Tris-HCl buffer (pH 7.8)

## CCC/C=C/C(=O)SCCNC(=O)CCNC(=O)[C@H](O)C(C)(C)COP(=O)(O)OP(=O)(O)OC[C@H]1O[C@@H](n2cnc3c(N)ncnc32)[C@H](O)[C@@H]1OP(=O)(O)O [2-hexenoyl-CoA (C6), 2-hexenoyl-CoA]
[1]
  Maximum velocity Vmax: 2.4 ± 0.3 × 10^3 U mg^−1
[2]
  Maximum velocity Vmax: 7.0 ± 0.5 × 10^2 U mg^−1
[3]
  Maximum velocity Vmax: 1.1 ± 0.1 × 10^2 U mg^−1
  Km: 110 ± 16 µM

## CCCCC/C=C/C(=O)SCCNC(=O)CCNC(=O)[C@H](O)C(C)(C)COP(=O)(O)OP(=O)(O)OC[C@H]1O[C@@H](n2cnc3c(N)ncnc32)[C@H](O)[C@@H]1OP(=O)(O)O [2-oxtenoyl-CoA (C8), 2-octenoyl-CoA]
[1]
  Maximum velocity Vmax: 2.0 ± 0.1 × 10^3 U mg^−1
[2]
  Maximum velocity Vmax: 6.7 ± 0.7 × 10^2 U mg^−1
[3]
  Maximum velocity Vmax: 2.8 ± 0.5 × 10^2 U mg^−1
  Km: 38 ± 12 µM

## C/C=C/C(=O)SCCNC(=O)CCNC(=O)[C@H](O)C(C)(C)COP(=O)(O)OP(=O)(O)OC[C@H]1O[C@@H](n2cnc3c(N)ncnc32)[C@H](O)[C@@H]1OP(=O)(O)O [Crotonyl-CoA (C4), crotonyl-CoA]
[1]
  Maximum velocity Vmax: 1.4 ± 0.1 × 10^2 U mg^−1
[3]
  Maximum velocity Vmax: 1.3 ± 0.2 × 10^1 U mg^−1
  Km: 178 ± 46 µM

B1: C. necator R form-specific enoyl-CoA hydratase PhaJ1 (phaJ1 gene, H16_A1070, SEQ ID NO: 2), wild type, recombinant N-terminal His tag (Cupriavidus necator H16) (protein)
chain: MRTIASLEELEGLQGQEVAVSDWIEVTQQQVNQFADATGDHQWIHIDVERAKKESPYGGPIAHGFLTLSLLPKFMHNALHMPSKIGVNYGLNRVRFTAPVPVGSKLRARIKLLKVERLDPLPKSPELVGAQSTWEVTVEREGSDRPVCVAESITRRYG
[4]; [8]
  Km: 91 ± 5 µM
[5]; [8]
  Km: 24 ± 5 µM
[6]; [8]
  Km: 41 ± 7 µM

B2: C. necator R form-specific enoyl-CoA hydratase PhaJ2 (phaJ2 gene, H16_B0397, SEQ ID NO: 3), wild type, recombinant N-terminal His tag (Cupriavidus necator H16) (protein)
chain: MKTYENIADLQPLVGEVIGTSEWLALDQARINTFADATGDHQWIHVDVERAKNGPFGAPIAHGFLTLSLLPAFTHSAYRIRNSSTGVNYGLDKVRFPAPVPVDSLLRAQFKLMSYEALENGGAQFKVEMMVERQGGSKPVCIAESILRRFP
[4]; [9]
  Km: 311 ± 15 µM
[5]; [9]
  Km: 23 ± 4 µM
[6]; [9]
  Km: 77 ± 14 µM

B3: PhaJ1: purified His-tagged recombinant protein expressed in E. coli from phaJ1 (SEQ ID NO: 2) of C. necator; (R)-form-specific enoyl-CoA hydratase (protein)
chain: MRTIASLEELEGLQGQEVAVSDWIEVTQQQVNQFADATGDHQWIHIDVERAKKESPYGGPIAHGFLTLSLLPKFMHNALHMPSKIGVNYGLNRVRFTAPVPVGSKLRARIKLLKVERLDPLPKSPELVGAQSTWEVTVEREGSDRPVCVAESITRRYG
modifications: His tag; Cupriavidus necator; Cupriavidus necator strain H16 (R)-form- specific enoyl-CoA hydratase (R-hydratase, phaJ1), H16_A1070
[7]
  absorbance at 412 nm: increase
  stereoselectivity of the hydration reaction: (R)-form-specific

B4: PhaJ2: purified His-tagged recombinant protein expressed in E. coli from phaJ2 (SEQ ID NO: 3) of C. necator; (R)-form-specific enoyl-CoA hydratase (protein)
chain: MKTYENIADLQPLVGEVIGTSEWLALDQARINTFADATGDHQWIHVDVERAKNGPFGAPIAHGFLTLSLLPAFTHSAYRIRNSSTGVNYGLDKVRFPAPVPVDSLLRAQFKLMSYEALENGGAQFKVEMMVERQGGSKPVCIAESILRRFP
modifications: His tag; Cupriavidus necator R-hydratase gene (phaJ2); Cupriavidus necator strain H16 (R)-form- specific enoyl-CoA hydratase (R-hydratase, phaJ2), H16_B0397
[7]
  absorbance at 412 nm: increase
  stereoselectivity of the hydration reaction: (R)-form-specific
